# In patent US20250235545A1, “POLYPEPTIDE CONJUGATE AND USE THEREOF” (SHANGHAI CHIXI BIOMEDICAL TECHNOLOGY CO., LTD, priority 2024, published 2025):
# Where two headings read alike, the source gives them in different places. Where a SMILES comes first, the peptide text is derived from it. The star is where a group is joined. X4 = CCCN(CCc1c2c(nc3ccccc13)-c1cc3c(c(=O)n1C2)COC(=O)[C@]3(O)CC)*; X5 = CC[C@@]1(O)C(=O)OCc2c1cc1n(c2=O)Cc2c-1nc1ccccc1c2CCN(CC(C)C)*; Propanoyl(3-maleimido) = O=C1C=CC(=O)N1CCC(=O)*; PEG6 = NCCOCCOCCOCCOCCOCCOCCC(=O)O
# How the values were obtained:
# [1] = Tumor homogenate activation efficiency, sarcoma tissue (Examples 28, 37); type: in vitro ADME; settings: pH 5.0, 37° C., 2 h; Table 10
# Procedure, shortened: (§1)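 Activation is reported as the fraction of free Belotecan peak area among all Belotecan-bearing peaks by HPLC. The conjugate (1 mg/ml) reacts with 100 μg homogenate for 2 h at 37° C in MES buffer, pH 5.0.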
# [2] = system: sarcoma SJSA-1 tumor model; assay: Efficacy in animal model of sarcoma SJSA-1, 30 mg/kg once a week for two weeks (Example 40); type: in vivo, BALB/c mice; settings: 30 mg/kg once a week for two weeks
# Procedure: Test objective: To further compare the antitumor efficacy of different polypeptide Linkers in an animal tumor model of sarcoma SJSA-1.
# Test drug: Polypeptide conjugate and normal saline control group.
# The control group was administered normal saline. Administration was performed once a week for two weeks.
# [3] = Tumor homogenate activation efficiency, colorectal cancer tissue (Example 37); type: in vitro ADME; settings: pH 5.0, 37° C., 2 h; Table 10
# Procedure: Buffer preparation: 50 mM PH buffer (MES), 250 mM NaCl, pH adjusted to 5.0 with 0.5 M of sodium hydroxide.
# The polypeptide conjugate was prepared into a 1 mg/ml solution with pH 5.0 buffer, 100 μg of tumor tissue homogenate was added, (the tumor tissue homogenate was the homogenate of tumor tissues prepared with a Jingxin F6/10 handheld homogenizer), and the solution was placed at 37° C. for 2 h. The tumor tissue homogenate could effectively activate the polypeptide conjugate and release Belotecan, and the activation efficiencies of the drugs in tumor tissues were compared by HPLC allowing determination of a decrease in the compounds and an increase in Belotecan:
# Release percentage=peak area of Belotecan/total peak area of Belotecan and all other Belotecan-containing compounds
# [4] = Tumor homogenate activation efficiency, non-small cell lung cancer tissue (Examples 28, 37); type: in vitro ADME; settings: pH 5.0, 37° C., 2 h; Table 10
# Procedure, shortened: as §1
# [5] = system: colo320 colorectal cancer tumor model; settings: Table 8
# Procedure, shortened: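 Dosing was once a week for four weeks, with saline as control, in randomized groups of three mice. Groups were formed after subcutaneous colo320 xenografts (7.5×10^6 cells, right chest) grew to ≥120 mm^3 in female 6–8-week-old BALB/c nude mice.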
# [6] = Tumor homogenate activation efficiency, breast cancer tissue (Examples 28, 37); type: in vitro ADME; settings: pH 5.0, 37° C., 2 h; Table 10
# Procedure, shortened: as §1
# [7] = Tumor homogenate activation efficiency, ovarian cancer tissue (Examples 28, 37); type: in vitro ADME; settings: pH 5.0, 37° C., 2 h; Table 10
# Procedure, shortened: as §1
# [8] = system: colo320 (colorectal cancer tissue); assay: cells; type: cell-based; settings: CCK8, 48 h; Table 6
# Procedure, shortened: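 Colo320 cells, 5,000 per well, exposed to drug concentration series for 48 h at 37 °C, 5% CO2 (0.1% DMSO controls). Viability by CCK8, absorbance at 450 nm after about 2 h. Survival rates and IC50 calculated.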
# [9] = Homogenate activation efficiency, heart tissue (Examples 28, 37); type: in vitro ADME; settings: pH 5.0, 37° C., 2 h; Table 10
# [10] = system: sarcoma SJSA-1 tumor model; settings: Table 7
# Procedure, shortened: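 Female BALB/c nude mice (6-8 weeks) bearing subcutaneous right-chest SJSA-1 xenografts from 2×10^7 cells were randomized, three per group, once tumors reached at least 100 mm^3. Treatment given once a week for three weeks starting day 1; saline controls.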
# [11] = 15 mg/kg once a week for four weeks
# [12] = 45 mg/kg once a week for four weeks
# [13] = 15 mg/kg once a week for three weeks
# [14] = 45 mg/kg once a week for three weeks
SMILES,Percentage of release efficiency (%) Sarcoma tissue (SJSA1) [1] [%],SJSA-1 (sarcoma tissue) mean tumor volume (mm^3) Day 1 [2] [mm^3],SJSA-1 (sarcoma tissue) mean tumor volume (mm^3) Day 4 [2] [mm^3],SJSA-1 (sarcoma tissue) mean tumor volume (mm^3) Day 7 [2] [mm^3],SJSA-1 (sarcoma tissue) mean tumor volume (mm^3) Day 10 [2] [mm^3],Mouse weight (%) on Day 14 [2],SJSA-1 (sarcoma tissue) growth rate (%) on Day 14 [2] [%],SJSA-1 (sarcoma tissue) mean tumor volume (mm^3) Day 14 [2] [mm^3],Percentage of release efficiency (%) Colorectal cancer tissue (colo320) [3] [%],Percentage of release efficiency (%) Non-small cell lung cancer tissue (A549) [4] [%],"Mouse weight (%) [5, 11]","colo320 (colorectal cancer cell) growth rate (%) [5, 11] [%]","colo320 (colorectal cancer cell) mean tumor volume (mm^3) [5, 11] [mm^3]","Mouse weight (%) [5, 12]","colo320 (colorectal cancer cell) growth rate (%) [5, 12] [%]","colo320 (colorectal cancer cell) mean tumor volume (mm^3) [5, 12] [mm^3]",Percentage of release efficiency (%) Breast cancer tissue (SKBR3) [6] [%],Percentage of release efficiency (%) Ovarian cancer tissue (A2780) [7] [%],IC50 Colorectal cancer tissue (colo320) [8] [µg/mL],Percentage of release efficiency (%) Heart tissue [9] [%],also measured
CC[C@@]1(O)C(=O)OCc2c1cc1n(c2=O)Cc2c-1nc1ccccc1c2CCN(CC(C)C)C(=O)[C@H](CC(C)C)NC(=O)[C@H](CC(N)=O)NC(=O)[C@H](C)NC(=O)[C@H](C)NC(=O)CCOCCOCCOCCOCCOCCOCCNC(=O)CCN1C(=O)C=CC1=O [MI-6PEG-AANL-D5] ({Propanoyl(3-maleimido)-PEG6}-AANL-X5),77.5,139.89,429.56,658.17,876.45,−1.1%,979.44,1370.14,69.8,85.5,+19%,1027.54,1257.2,+19%,643.05,755.9,70.2,74.3,2.42,5.5,"Mouse weight (%) [10, 13]: +18%; SJSA-1 (sarcoma tissue) growth rate (%) [10, 13]: 1069.02%; SJSA-1 (sarcoma tissue) mean tumor volume (mm^3) [10, 13]: 1304.2 mm^3; Mouse weight (%) [10, 14]: +17%; SJSA-1 (sarcoma tissue) growth rate (%) [10, 14]: 933.13%; SJSA-1 (sarcoma tissue) mean tumor volume (mm^3) [10, 14]: 1165.2 mm^3"
CCCN(CCc1c2c(nc3ccccc13)-c1cc3c(c(=O)n1C2)COC(=O)[C@]3(O)CC)C(=O)[C@H](CC(C)C)NC(=O)[C@H](CC(N)=O)NC(=O)[C@H](C)NC(=O)[C@H](C)NC(=O)CCOCCOCCOCCOCCOCCOCCNC(=O)CCN1C(=O)C=CC1=O [MI-6PEG-AANL-D3] ({Propanoyl(3-maleimido)-PEG6}-AANL-X4),90,137.17,436.65,735.18,1111.34,+4.2%,1316.37,1805.67,71.6,66.8,+18%,1088.75,1279.8,+18%,641.35,753.9,67.9,69.5,3.28,3.9,"Mouse weight (%) [10, 13]: +21%; SJSA-1 (sarcoma tissue) growth rate (%) [10, 13]: 1207.54%; SJSA-1 (sarcoma tissue) mean tumor volume (mm^3) [10, 13]: 1521.5 mm^3; Mouse weight (%) [10, 14]: +16%; SJSA-1 (sarcoma tissue) growth rate (%) [10, 14]: 941.15%; SJSA-1 (sarcoma tissue) mean tumor volume (mm^3) [10, 14]: 1205.8 mm^3"
